Measurements reported in patent publication US20180333418A1, “USE OF PAN FGFR INHIBITORS AND METHOD OF IDENTIFYING PATIENTS WITH CANCER ELIGIBLE FOR TREATMENT WITH A PAN FGFR INHIBITOR” (BAYER PHARMA AKTIENGESELLSCHAFT, priority 2014, published 2018).

Assays:
[1] = tested on: ES204 esophagus squamous cell carcinoma; experiment: ES204 patient-derived xenograft study; assay type: in vivo, nu/nu mice
Method: Female, 6-8 weeks old immunocompromised nu/nu mice (18-24 g) from Vital River (China) were used for the patient-derived ES204 esophagus squamous cell carcinoma study.
Experiment was initiated after a minimal acclimatization period of 6 days. Mice were kept in a 12 hours light/dark cycle, food and water was available ad libitum and housing temperature was 20-26° C. All the procedures related to animal handling, care, and the treatment in this study were performed according to the guidelines approved by the Institutional Animal Care and Use Committee (IACUC) of CrownBio following the guidance of the Association for Assessment and Accreditation of Laboratory Animal Care (AAALAC). […]
Tumor fragments from stock mice inoculated with selected primary human esophagus cancer tissues (ES204) were harvested and used for inoculation onto female nu/nu nude mice. […] Tumors were sampled when mice in the control group reached sacrificing criteria, and final tumor weights were measured on day 23 post treatment start.
Tumor size was measured twice weekly in two dimensions using a caliper, and the volume was expressed in mm^3 using the formula: V=0.5a×b^2 where a and b are the long and short diameters of the tumor, respectively. […]
Descriptive statistics for all groups were performed on final tumor areas and tumor weights at day of the necropsy. Statistical analysis was assessed using the SigmaStat software. […]

H520 lung tumor model = experiment: H520 xenograft in vivo efficacy; design: species or system nu/nu mice; details: tumor weight reduction
Method: (§1) For all other tumors as listed in table 2 & 3 the experiments were carried out in an analogous way as described above.

[2] = tested on: LXFL1121 lung tumor model; experiment: LXFL1121 xenograft in vivo efficacy; design: species or system nu/nu mice; details: tumor weight reduction
Method: as §1

[3] = tested on: FGFR mRNA-positive tumors of cancer patients; experiment: Clinical trial NCT01976741, RECIST CT scan evaluation; assay type: in vivo; design: key to RECIST response after C2 / RECIST response after C5: Stable Disease (SD) according to RECIST; progressive disease (PD); details: 800 mg BID; for % tumor change after C2 / RECIST response after C2: C2 = 6 weeks; for % tumor change after C5 / RECIST response after C5: C5 = 15 weeks

**Q.** What does the source list for `COCc1c(-c2cc3cc(C)cc(OC)c3s2)c2c(N)ncnn2c1CN1CCNC(=O)C1` [compound of formula (I)]?
**A.** T/C at day 23 post treatment start ([1]; ES204, 50 mg/kg 2QD po, treated mean/vehicle mean tumor volume): 0.1; in vivo efficacy ([1]; ES204 esophageal model, tumor weight reduction): yes (All models in which the tumor weight was reduced upon treatment with compounds of formula (I) by at least 50% were considered to be efficacious in vivo.); in vivo efficacy (H520 lung tumor model): no (All models in which the tumor weight was reduced upon treatment with compounds of formula (I) by at least 50% were considered to be efficacious in vivo.); in vivo efficacy [2]: yes (All models in which the tumor weight was reduced upon treatment with compounds of formula (I) by at least 50% were considered to be efficacious in vivo.); % tumor change after C2 ([3]; Pat 100010010, sqNSCLC): 0%; RECIST response after C2 ([3]; Pat 100010010, sqNSCLC): SD; % tumor change after C5 ([3]; Pat 100010010, sqNSCLC): +8%; RECIST response after C5 ([3]; Pat 100010010, sqNSCLC): SD; % tumor change after C2 ([3]; Pat 100010018, Mesothelioma): +14%; RECIST response after C2 ([3]; Pat 100010018, Mesothelioma): SD; % tumor change after C2 ([3]; Pat 100020012, sqNSCLC): −10%; RECIST response after C2 ([3]; Pat 100020012, sqNSCLC): SD; % tumor change after C2 ([3]; Pat 560020029, sqNSCLC): +4%; RECIST response after C2 ([3]; Pat 560020029, sqNSCLC): SD; % tumor change after C5 ([3]; Pat 560020029, sqNSCLC): +5%; RECIST response after C5 ([3]; Pat 560020029, sqNSCLC): SD; % tumor change after C2 ([3]; Pat 560020064, SCLC): −2%; RECIST response after C2 ([3]; Pat 560020064, SCLC): SD; % tumor change after C2 ([3]; Pat 580010012, sqNSCLC): −10%; RECIST response after C2 ([3]; Pat 580010012, sqNSCLC): SD; % tumor change after C5 ([3]; Pat 580010012, sqNSCLC): −10%; RECIST response after C5 ([3]; Pat 580010012, sqNSCLC): SD; % tumor change after C2 ([3]; Pat 580010016, sqNSCLC): −5%; RECIST response after C2 ([3]; Pat 580010016, sqNSCLC): SD; % tumor change after C5 ([3]; Pat 580010016, sqNSCLC): −6%; RECIST response after C5 ([3]; Pat 580010016, sqNSCLC): SD; % tumor change after C2 ([3]; Pat 580010022, Bladder): −3%; RECIST response after C2 ([3]; Pat 580010022, Bladder): SD; % tumor change after C5 ([3]; Pat 580010022, Bladder): −2%; RECIST response after C5 ([3]; Pat 580010022, Bladder): SD; % tumor change after C2 ([3]; Pat 580010038, Unknown primary): +26%; RECIST response after C2 ([3]; Pat 580010038, Unknown primary): PD
